One series concerns MOLM-13 cells. The experiment in a line: Cell proliferation test on MOLM-13 cells (Cellriter-Glo). Particulars: Homo sapiens. It is filed as cell-based. As to the method: Cell plating: Cells were plated when they grow to a logarithmic growth phase. The cells were collected and the cell density was adjusted to 6×10^4 cells/mL; then the cell suspension is then poured into a loading slot and added into a 96-well cell culture plate at 50 μL/well (3000 cells/well viable cells). Note: the cells in the loading slot were well mixed while plating; cell information and plating date were labeled on the 96-well plates. NC wells (control wells) and BG wells (background wells) were provided. […] 50 μL/well of the compounds were added to the 96-well plate in which the cells were already plated. Incubation was carried out at 37° C., 5% CO2 for a period of time. Cell proliferation test: After incubation in the incubator for a period of time, 50 μL of […]-Glo Reagent per well was added. The plate was shaken at room temperature (500 rpm), incubated for 10 min in the dark, and then the […] was measured with a microplate reader. The mean background value was calculated. [formula] […] Specific data were presented in the form of graphs.

Series [1] can be described thus: Pharmacokinetic test in mice. The class given is in vivo. The settings on record: male C57 mice, plasma. As to the method: • 2.1 Experimental animals: male C57 mice, 18-20 g, 6 mice/compound or 12 mice/compound. • 2.2 Experimental design: the C57 mice were randomly grouped according to their body weights. The animals were fasted with water available for 12 to 14 h one day before the administration, and were fed 4 h after the administration.
Vehicle for intravenous administration: 5% DMA+5% Solutol+90% Saline; vehicle for intragastric administration: 0.5% MC; • (DMA: dimethylacetamide; Solutol: polyethylene glycol-15-hydroxystearate; Saline: physiological saline; MC: Methyl cellulose solution)
Before and after the administration, 0.06 mL of blood was taken from the orbit of the animals under isoflurane anesthesia and placed in an EDTAK2 centrifuge tube. The blood was centrifuged at 5000 rpm and 4° C. for 10 min to collect the plasma. The blood collection time points for the intravenous administration group and intragastric administration group were 0 min, 5 min, 15 min, 30 min, 1 h, 2 h, 4 h, 7 h and 24 h. Before analysis and detection, all samples were stored at −80° C.

Series [2] deals with T1, hERG potassium ion channel (Homo sapiens, UniProt Q12809).
T1 construct: expressed in transfected cells
T1 sequence (Q12809 whole entry): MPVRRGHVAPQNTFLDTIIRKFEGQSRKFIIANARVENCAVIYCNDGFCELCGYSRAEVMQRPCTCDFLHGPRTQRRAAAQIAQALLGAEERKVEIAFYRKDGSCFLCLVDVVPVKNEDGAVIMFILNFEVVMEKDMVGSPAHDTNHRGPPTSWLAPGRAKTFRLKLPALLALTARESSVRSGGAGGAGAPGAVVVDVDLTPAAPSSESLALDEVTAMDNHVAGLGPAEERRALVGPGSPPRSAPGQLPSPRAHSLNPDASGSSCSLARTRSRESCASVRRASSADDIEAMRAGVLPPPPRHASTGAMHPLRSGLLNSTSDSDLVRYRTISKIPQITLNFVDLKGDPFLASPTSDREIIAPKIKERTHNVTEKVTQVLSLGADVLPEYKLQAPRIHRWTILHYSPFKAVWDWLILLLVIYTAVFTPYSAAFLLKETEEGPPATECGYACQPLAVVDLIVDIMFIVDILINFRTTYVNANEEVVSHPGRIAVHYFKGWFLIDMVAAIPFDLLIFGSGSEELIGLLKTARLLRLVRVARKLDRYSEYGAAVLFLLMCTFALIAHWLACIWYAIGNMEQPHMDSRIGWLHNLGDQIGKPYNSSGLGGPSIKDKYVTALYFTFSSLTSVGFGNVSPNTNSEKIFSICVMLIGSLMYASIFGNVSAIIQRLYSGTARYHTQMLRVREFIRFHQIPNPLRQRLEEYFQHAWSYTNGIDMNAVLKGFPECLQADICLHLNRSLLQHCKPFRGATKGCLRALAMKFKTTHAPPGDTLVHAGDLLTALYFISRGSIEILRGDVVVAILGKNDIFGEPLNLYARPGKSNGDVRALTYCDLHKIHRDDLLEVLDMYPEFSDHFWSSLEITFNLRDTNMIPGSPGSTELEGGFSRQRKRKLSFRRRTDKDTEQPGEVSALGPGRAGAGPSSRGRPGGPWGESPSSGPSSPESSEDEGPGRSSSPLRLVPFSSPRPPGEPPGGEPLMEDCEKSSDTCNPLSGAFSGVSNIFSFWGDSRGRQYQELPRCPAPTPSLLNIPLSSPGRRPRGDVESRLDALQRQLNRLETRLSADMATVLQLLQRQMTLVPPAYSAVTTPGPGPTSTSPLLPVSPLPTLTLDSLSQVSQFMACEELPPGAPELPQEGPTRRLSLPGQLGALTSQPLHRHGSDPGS
The experiment in a line: Test for hERG potassium ion channel (manual patch-clamp, CHO cells). Particulars: CHO cells stably expressing hERG, whole cell patch-clamp, room temperature; read-out: IC50 for the inhibitory effect on hERG potassium channel current. The class given is cell-based. The source says: Experimental platform: electrophysiological manual patch-clamp system Cell line: Chinese hamster ovary (CHO) cell lines stably expressing hERG potassium ion channel
Experimental method: in CHO (Chinese Hamster Ovary) cells stably expressing hERG potassium channel, whole cell patch-clamp technique was used to record hERG potassium channel current at room temperature. The glass microelectrode was made of a glass electrode blank (BF150-86-10, Sutter) by a puller. The tip resistance after filling the liquid in the electrode was about 2-5 MO. The glass microelectrode can be connected to the patch-clamp amplifier by inserting the glass microelectrode into an amplifier probe. The clamping voltage and data recording were controlled and recorded by the pClamp 10 software through a computer. The sampling frequency was 10 kHz, and the filtering frequency was 2 kHz. […]
Data processing: Data analysis processing was carried out by using pClamp 10, GraphPad Prism 5 and Excel software. The inhibition degree of hERG potassium current (peak value of hERG tail current induced at −50 mV) at different compound concentrations was calculated by the following formula: […]
Compound IC50 was calculated using GraphPad Prism 5 software by fitting according to the following equation: […]
A general note: The hERG channel carries a current that helps repolarise heart muscle cells.

Where [3] appears, read: MOLM-13, read-out: IC50 on MOLM-13 cells.
Where [4] appears, read: MOLM-13 cells, maximum detection concentration 10 μM, read-out: IC50 of compounds on MOLM-13 cells.

Structures are written as SMILES. Where two headings read alike, the source gives them in different places. A value given as a limit tells only on which side of the number the result lay.

For `Cn1ccn2c(=O)cc(C(=O)NCc3ccc4cc(CNCC56CC(F)(C5)C6)[nH]c4c3)nc12` [Compound 3], the values for the IC50 in the series on MOLM-13 cells (setting [3]) and in the series on MOLM-13 cells (setting [4]) were 230 nM and under 2000 nM, respectively.
As for `[2H]C([2H])([2H])n1ccn2c(=O)cc(C(=O)NCc3ccc4cc(CNCC56CC(F)(C5)C6)[nH]c4c3)nc12` [Compound 4], the IC50 with MOLM-13 cells (setting [3]) is 160 nM; in the series with MOLM-13 cells (setting [4]), under 2000 nM.
On to `O=C(NCc1cc2[nH]c(CNCC3CCC3)cc2s1)c1cc(=O)n2cccc(F)c2n1` [Compound 18], for which, in the series with MOLM-13 cells (setting [4]), the IC50 is 2000 to 10000 nM.
Same read-out and setting: with `O=C(NCc1cc2[nH]c(CNC3CCCCC3)cc2s1)c1cc(=O)n2ccccc2n1` [Compound 20] the figure was 2000 to 10000 nM; with `CC(C)(C)CNCc1cc2sc(CNC(=O)c3cc(=O)n4ccccc4n3)cc2[nH]1` [Compound 22], 2000 to 10000 nM.
Compound `O=C(NCc1ccc2cc(CNCC34CC(F)(C3)C4)[nH]c2c1)c1cc(=O)n2ccccc2n1` [Compound 23 in WO 2021111124] registered a F in series [1] (i.g. 10 mg/kg) of 31.6%. In addition, the AUC(0-t) came out at 730 ng·h/mL in series [1] (mouse, iv, i.v. 2.5 mg/kg) and 923 ng·h/mL in series [1] (mouse, po, i.g. 10 mg/kg). This compound came in with a clearance in series [1] (mouse, iv, i.v. 2.5 mg/kg) of 57 mL/min/kg. Besides, in series [1] (mouse, iv, i.v. 2.5 mg/kg, read-out: Vdss), the Vd was determined as 2.21 L/kg.
Take `Cn1ccn2c(=O)cc(C(=O)NCc3ccc4cc(CNCC5CCC5)[nH]c4c3)nc12` [Trifluoroacetate of compound 1]: in the series with MOLM-13 cells (setting [4]), the IC50 was under 2000 nM.
Take `O=C(NCc1ccc2cc(CNCC3CCC3)[nH]c2c1)c1cc(=O)n2cc[nH]c2n1` [Trifluoroacetate of compound 2]: the IC50 with MOLM-13 cells (setting [4]) lay within 2000 to 10000 nM.
On the same count and under the same terms, for `O=C(NCc1ccc2cc(CNCC3CCC3)[nH]c2c1)c1cc(=O)n2ccn(CC3CC3)c2n1` [Trifluoroacetate of compound 5] the value was 2000 to 10000 nM.
On the same count and under the same terms, for `CC(C)n1ccn2c(=O)cc(C(=O)NCc3ccc4cc(CNCC5CCC5)[nH]c4c3)nc12` [Trifluoroacetate of compound 6] the value was 2000 to 10000 nM.
On to `CCn1ccn2c(=O)cc(C(=O)NCc3ccc4cc(CNCC56CC(F)(C5)C6)[nH]c4c3)nc12` [Trifluoroacetate of compound 8], for which the IC50 with MOLM-13 cells (MOLM-13, read-out: IC50 of compounds on MOLM-13 cells) is under 2000 nM.
With `CCn1ccn2c(=O)cc(C(=O)NCc3ccc4cc(CNCC5CCC5)[nH]c4c3)nc12` [Trifluoroacetate of compound 9], the IC50 in the series with MOLM-13 cells (setting [4]) fell in the range of 2000 to 10000 nM.
Same read-out and setting: with `C#CCn1ccn2c(=O)cc(C(=O)NCc3ccc4cc(CNCC5CCC5)[nH]c4c3)nc12` [Trifluoroacetate of compound 10] the figure was under 2000 nM; with `O=C(NCc1ccc2cc(CNCC3CCC3)[nH]c2c1)c1cc(=O)n2ccn(C3CC3)c2n1` [Trifluoroacetate of compound 11], 2000 to 10000 nM.
In the case of `O=C(NCc1cc2[nH]c(CNCC3CCC3)cc2s1)c1cc(=O)n2ccccc2n1` [Trifluoroacetate of compound 12], the IC50 was under 2000 nM in the series on MOLM-13 cells (setting [4]) and over 30 µM in series [2].
`O=C(NCc1cc2[nH]c(CNCC34CC(F)(C3)C4)cc2s1)c1cc(=O)n2ccn(C(F)F)c2n1` [Trifluoroacetate of compound 14]: the IC50 in the series on MOLM-13 cells (setting [4]) was in the range of 2000 to 10000 nM.
Consider `O=C(NCc1cc2[nH]c(CNCC3CCC3)cc2s1)c1cc(=O)n2cc(F)ccc2n1` [Trifluoroacetate of compound 16], for which, in the series with MOLM-13 cells (setting [4]), the IC50 is 2000 to 10000 nM.
Take `O=C(NCc1cc2[nH]c(CNCC3CCC3)cc2s1)c1cc(=O)n2ccc(C3CC3)cc2n1` [Trifluoroacetate of compound 17]: the IC50 in the series on MOLM-13 cells (setting [4]) is 2000 to 10000 nM.

In general, IC50 refers to the concentration at which inhibition is half-maximal. By AUC(0-t) is commonly meant exposure summed from dosing to a finite time, without extrapolation to infinity. Lower therefore signals low exposure. In general, clearance refers to the volume of plasma or blood freed of the substance per unit of time. High values mean efficient removal, low ones inefficient removal.

Source of the values: patent US20250145627A1, “METTL3 Inhibitor and Composition, and Application of Same in Medicine” (XIZANG HAISCO PHARMACEUTICAL CO., LTD., priority 2022, published 2025).
